US20240247024A1, “INHIBITORS OF NICOTINAMIDE N-METHYL TRANSFERASE (NNMT)” (UNIVERSITEIT LEIDEN, priority 2021, published 2024)
Several values for one entry are separate records, joined by “and”; a condition that tells them apart may be missing. Equal entries are not always repeated. Where two headings read alike, the source gives them in different places. Blank lines part the entries; values can stand above or below the molecule they belong to.

Biological target: T1, NNMT (Homo sapiens, UniProt P40261)
T1 sequence (P40261 1-264): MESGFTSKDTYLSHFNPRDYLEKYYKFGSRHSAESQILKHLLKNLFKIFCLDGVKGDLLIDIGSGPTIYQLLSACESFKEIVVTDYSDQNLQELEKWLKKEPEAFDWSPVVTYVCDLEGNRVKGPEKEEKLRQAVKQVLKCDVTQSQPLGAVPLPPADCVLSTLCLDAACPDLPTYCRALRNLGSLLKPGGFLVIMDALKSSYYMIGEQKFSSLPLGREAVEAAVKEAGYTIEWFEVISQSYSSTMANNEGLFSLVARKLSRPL
Test: NNMT assay (HILIC-MS/MS, formation of MNA)
Details: NA 200 μM, SAM 8.5 μM

[1] = IC50 values (nM), Table 9, compounds CM035 and CM037
[2] = IC50 values (μM), Table 9, compounds CM035 and CM037
[3] = read-out: IC50 values, Table 1, alkene linked aromatics, maximum concentration tested 25 μM
[4] = IC50 values (nM), Table 3, 1-carbon alkyl linkers, maximum concentration tested 25 μM
[5] = IC50 values (μM), Table 3, 1-carbon alkyl linkers, maximum concentration tested 25 μM
[6] = IC50 values (nM), Table 6, amino acid replacement, maximum concentration tested 25 μM
[7] = IC50 values (μM), Table 6, amino acid replacement, maximum concentration tested 25 μM

SMILES: CC(=O)N(C/C=C/c1ccc(C#N)cc1)C[C@H]1C[C@@H](n2ccc3c(Cl)ncnc32)[C@H](O)[C@@H]1O [CM035]
IC50 [1]: 3580 nM
IC50 [2]: 3580 nM

SMILES: CC(=O)N(C/C=C/c1ccc(C#N)cc1)C[C@H]1C[C@@H](n2ccc3c(N)ncnc32)[C@H](O)[C@@H]1O [CM037]
IC50 [1]: 264 nM
IC50 [2]: 260 nM

SMILES: Nc1ncnc2c1ncn2[C@@H]1O[C@H](CN(C/C=C/c2ccccc2C(F)(F)F)CC[C@H](N)C(=O)O)[C@@H](O)[C@H]1O [GYZ-326]
IC50 [3]: 2850 nM

SMILES: Nc1ncnc2c1ncn2[C@@H]1O[C@H](CN(C/C=C/c2c(Cl)cccc2Cl)CC[C@H](N)C(=O)O)[C@@H](O)[C@H]1O [GYZ-336]
IC50 [3]: > 25000 nM

SMILES: Nc1ncnc2c1ncn2[C@@H]1O[C@H](CN(C/C=C/c2cccc(C(F)(F)F)c2)CC[C@H](N)C(=O)O)[C@@H](O)[C@H]1O [GYZ-349]
IC50 [3]: 164 nM

SMILES: Nc1ncnc2c1ncn2[C@@H]1O[C@H](CN(C/C=C/c2ccc(C(F)(F)F)cc2)CC[C@H](N)C(=O)O)[C@@H](O)[C@H]1O [GYZ-350]
IC50 [3]: 1390 nM

SMILES: Nc1ncnc2c1ncn2[C@@H]1O[C@H](CN(CC[C@H](N)C(=O)O)Cc2ccccc2C(F)(F)F)[C@@H](O)[C@H]1O [GYZ-415]
IC50 [4]: 9700 nM
IC50 [5]: 9700 nM

SMILES: N#Cc1ccc(/C=C/CN(C/C=C/c2ccc(C#N)cc2)C[C@H]2O[C@@H](n3cnc4c(N)ncnc43)[C@H](O)[C@@H]2O)cc1 [GYZ-466]
IC50 [6]: > 25000 nM
IC50 [7]: > 25000 nM

SMILES: N#Cc1ccc(/C=C/CN(CCC[C@H](N)C(=O)O)C[C@H]2O[C@@H](n3cnc4c(N)ncnc43)[C@H](O)[C@@H]2O)cc1 [GYZ-485]
IC50 [6]: 356 nM

SMILES: Nc1ncnc2c1ncn2[C@@H]1O[C@H](CN(C/C=C/c2ccc(C(=O)O)cc2)CC[C@H](N)C(=O)O)[C@@H](O)[C@H]1O [GYZ-564]
IC50 [3]: > 25000 nM

SMILES: C=CC(=O)NCCN(C/C=C/c1ccc(C#N)cc1)C[C@H]1O[C@@H](n2cnc3c(N)ncnc32)[C@H](O)[C@@H]1O [GYZ-604]
IC50 [6]: 21000 nM
IC50 [7]: 21000 nM

SMILES: N#Cc1ccc(/C=C/CN(CCCNC(=O)CCl)C[C@H]2O[C@@H](n3cnc4c(N)ncnc43)[C@H](O)[C@@H]2O)cc1 [GYZ-608]
IC50 [6]: 11900 nM
IC50 [7]: 11900 nM

Next, values leading:

IC50 [4]: 6790 nM
IC50 [5]: 6790 nM
SMILES: Nc1ncnc2c1ncn2[C@@H]1O[C@H](CN(CC[C@H](N)C(=O)O)Cc2ccc(C(F)(F)F)cc2)[C@@H](O)[C@H]1O [GYZ-414]

IC50 [4]: 6580 nM
IC50 [5]: 6580 nM
SMILES: Nc1ncnc2c1ncn2[C@@H]1O[C@H](CN(CC[C@H](N)C(=O)O)Cc2cccc(C(F)(F)F)c2)[C@@H](O)[C@H]1O [GYZ-416]

IC50 (read-out: IC50 values, Table 3, 1-carbon alkyl linkers, maximum concentration tested 25 μM): 410 nM and 407 nM
SMILES: Nc1ncnc2c1ncn2[C@@H]1O[C@H](CN(CC[C@H](N)C(=O)O)Cc2ccc(F)c([N+](=O)[O-])c2)[C@@H](O)[C@H]1O [GYZ-417]

IC50 [4]: 320 nM
IC50 [5]: 320 nM
SMILES: Nc1ncnc2c1ncn2[C@@H]1O[C@H](CN(CC[C@H](N)C(=O)O)Cc2cccc([N+](=O)[O-])c2)[C@@H](O)[C@H]1O [GYZ-419]

IC50 [4]: 6610 nM
IC50 [5]: 6610 nM
SMILES: Nc1ncnc2c1ncn2[C@@H]1O[C@H](CN(CC[C@H](N)C(=O)O)Cc2ccc([N+](=O)[O-])cc2)[C@@H](O)[C@H]1O [GYZ-420]

IC50 [4]: > 25000 nM
IC50 [5]: > 25000 nM
SMILES: Nc1ncnc2c1ncn2[C@@H]1O[C@H](CN(CC[C@H](N)C(=O)O)Cc2ccccc2F)[C@@H](O)[C@H]1O [GYZ-421]

IC50 [4]: 1240 nM
IC50 [5]: 1240 nM
SMILES: Nc1ncnc2c1ncn2[C@@H]1O[C@H](CN(CC[C@H](N)C(=O)O)Cc2cccc(F)c2)[C@@H](O)[C@H]1O [GYZ-422]

IC50 [4]: > 25000 nM
IC50 [5]: > 25000 nM
SMILES: Nc1ncnc2c1ncn2[C@@H]1O[C@H](CN(CC[C@H](N)C(=O)O)Cc2ccc(F)cc2)[C@@H](O)[C@H]1O [GYZ-423]

IC50 [4]: > 25000 nM
IC50 [5]: > 25000 nM
SMILES: Nc1ncnc2c1ncn2[C@@H]1O[C@H](CN(CC[C@H](N)C(=O)O)Cc2ccccc2[N+](=O)[O-])[C@@H](O)[C@H]1O [GYZ-425]

IC50 (IC50 values (nM), Table 5, 3-carbon alkyl linkers): 294 nM
IC50 (IC50 values (μM), Table 5, 3-carbon alkyl linkers): 290 nM
SMILES: Nc1ncnc2c1ncn2[C@@H]1O[C@H](CN(CCCc2ccc([N+](=O)[O-])cc2)CC[C@H](N)C(=O)O)[C@@H](O)[C@H]1O [GYZ-447]
